Data taken from patent publication EP1010435A1, “NANOCAPSULE PREPARATIONS FOR TREATING INTRAARTICULAR DISEASES” (Maruho K.K., priority 1997, dated 1999).

Tested on: rabbit models in which adjuvant arthritis was induced with ovalbumin (FCA)
Assay: Rabbit adjuvant arthritis model, intra-articular administration simultaneously with boosting
Format: in vivo, rabbits
Method: Produced were rabbit models in which adjuvant arthritis was induced with ovalbumin (FCA) according to the method of E.R.Pettipher et al. (Br.J.Exp.Path., 69, 113-122, (1988)). Three weeks after sensitization, the models were boosted again with ovalbumin at knees. Simultaneously with boosting, the sample of the present invention was administered in articular cavities.
An aqueous solution of betamethasone sodium phosphate so prepared that the amount of the medicament (BSP) was the same, 3mg, and physiological saline alone were administered in articular cavities as a control and as a blank test, respectively, simultaneously with boosting.
The outside diameter of the knees of rabbits were measured with a caliper 1 day, 3 days, 7 days, 14 days, 21 days, 28 days, 35 days and 42 days after administration. Skin temperature at the knees was measured with a contact-type surface thermometer.
The outside diameter of the knees and temperature measured with time are shown as values obtained by subtracting reference values from the measured values. The reference values are those before the boosting at the knees.
Further, blood was collected from rabbits 2 weeks, 4 weeks and 6 weeks after boosting, and the production of antibodies for ovalbumin was mesured by the ELISA method (according to the same reference by E.R.Pettipher). In addition, 6 weeks after boosting, the knee joints of rabbits are opened, and the inside of the articular cavities and surrounding tissue were morphologically observed.

## C[C@H]1C[C@H]2[C@@H]3CCC4=CC(=O)C=C[C@]4(C)[C@@]3(F)[C@@H](O)C[C@]2(C)[C@@]1(O)C(=O)COP(=O)(O)O [betamethasone sodium phosphate]
1 to 42 days after administration, 3 mg BSP intra-articular
  temperature of knees (surface skin temperature, increase): fever due to inflammation was suppressed
After day 1 up to 5 weeks and later, 3 mg BSP intra-articular
  swell of knees (outside diameter, increase over value before boosting), later course: almost the same swell as in the case of physiological saline
One day after intra-articular administration, 3 mg BSP
  swell of knees (outside diameter, increase over value before boosting): suppressed
